From patent US8101601B2, “Aminoacyl prodrug derivatives and medicaments for the treatment of thromboembolitic disorders” (Bayer Pharma Aktiengesellschaft, priority 2007, dated 2012) come the findings set out here.

Data set [1] can be described thus: Stability in buffer at various pH values (HPLC, 37° C., 24 h). In kind it is physicochemical. How it is done: 0.3 mg of the test substance is weighed into a 2 ml HPLC vial and 0.5 ml of acetonitrile is added. The substance is dissolved by putting the sample vessel in an ultrasonic bath for about 10 seconds. Then 0.5 ml of the respective buffer solution is added, and the sample is again treated in the ultrasonic bath.
• pH 4.0:1 liter of Millipore water is adjusted to pH 4.0 with 1 N hydrochloric acid; • pH 7.4: 90 g of sodium chloride, 13.61 g of potassium dihydrogen phosphate and 83.35 g of 1 M sodium hydroxide solution are made up to 1 liter with Millipore water and then diluted 1:10.
5 μl portions of the test solution are analysed by HPLC for their content of unchanged test substance every hour over a period of 24 hours at 37° C. The percentage areas of the appropriate peaks are used for quantification.
Agilent 1100 with DAD (G1314A), binary pump (G1312A), autosampler (G1329A), column oven (G1316A), thermostat (G1330A); column: Kromasil 100 C18, 125 mm×4.6 mm, 5 μm; column temperature: 30° C.; eluent A: water+5 ml of perchloric acid/liter, eluent B: acetonitrile.
The ratios of the peak areas (F) at the respective time points in relation to the peak areas at the starting time are shown in Table 2 for representative exemplary embodiments: […]

The nature of data set [2]: Determination of the solubility (suspension shaken 24 h at room temperature, HPLC). The following applies: dilute hydrochloric acid (pH 4), room temperature, 24 h; for solubility at 24 h: pH 4, aqueous buffer, thermodynamic from solid. In kind it is physicochemical. As to the method: […] This suspension is shaken at room temperature for 24 h. After ultracentrifugation at 224 000 g for 30 min, the supernatant is diluted with DMSO and analysed by HPLC. A two-point calibration plot of the test compound in DMSO is used for quantification.
Agilent 1100 with DAD (G1315A), quat. pump (G1311A), autosampler CTC HTS PAL, degasser (G1322A) and column thermostat (G1316A); column: Zorbax Extend-C18 3.5μ; temperature: 40° C.; eluent A: water+5 ml of perchloric acid/liter, eluent B: acetonitrile; flow rate: 0.7 ml/min; gradient: 0-0.5 min 98% A, 2% B; ramp 0.5-4.5 min 10% A, 90% B; 4.5-6 min 10% A, 90% B; ramp 6.5-6.7 min 98% A, 2% B; 6.7-7.5 min 98% A, 2% B.

Setting [3] is: buffer pH 4, 37° C., hydrobromide.

In brackets after ≈: the same amount, converted by molar mass. Counter-ions that a name gives are not always drawn.

For orientation: solubility means the concentration that dissolves in the medium under given conditions. A lower solubility goes with a poorly soluble substance. As to `NCC(=O)OCC(=O)N(C[C@H]1CN(c2ccc(N3CCOCC3=O)cc2)C(=O)O1)C(=O)c1ccc(Cl)s1` [Example 1, 2-[[(5-Chloro-2-thienyl)carbonyl]({(5S)-2-oxo-3-[4-(3-oxomorpholin-4-yl)phenyl]-1,3-oxazolidin-5-yl}methyl)amino]-2-oxoethyl glycinate hydrochloride], the “% test substance after 4 h [F(t = 4 h) × 100/F(t = 0 h)]” value (“% test substance after 4 h” for short) in data set [1] (buffer pH 4, 37° C.) is on record as 100%; in data set [1] (buffer pH 7.4, 37° C.), 49%. For the same molecule, the “% Test substance after 24 h [F(t = 24 h) × 100/F(t = 0 h)]” value (“% Test substance after 24 h” below) in data set [1] (buffer pH 4, 37° C.) is 99%; in data set [1] (buffer pH 7.4, 37° C.), 3%. The solubility at 24 h in data set [2] was 320 µg/mL.

Turning to `CC(C)(N)C(=O)OCC(=O)N(C[C@H]1CN(c2ccc(N3CCOCC3=O)cc2)C(=O)O1)C(=O)c1ccc(Cl)s1` [Example 2, 2-[[(5-Chloro-2-thienyl)carbonyl]({(5S)-2-oxo-3-[4-(3-oxomorpholin-4-yl)phenyl]-1,3-oxazolidin-5-yl}methyl)amino]-2-oxoethyl-2-methylalaninate hydrochloride], in data set [1] (buffer pH 4, 37° C.), the “% test substance after 4 h” value was 100% and the “% Test substance after 24 h” value was determined as 100%. Further, in data set [1] (buffer pH 7.4, 37° C.), the “% test substance after 4 h” value was found to be 96% and the “% Test substance after 24 h” value came out at 80%. In data set [2], this molecule came in with a solubility at 24 h of over 500 µg/mL.

For the molecule `CC(C)[C@H](N)C(=O)OCC(=O)N(C[C@H]1CN(c2ccc(N3CCOCC3=O)cc2)C(=O)O1)C(=O)c1ccc(Cl)s1` [Example 3, 2-[[(5-Chloro-2-thienyl)carbonyl]({(5S)-2-oxo-3-[4-(3-oxomorpholin-4-yl)phenyl]-1,3-oxazolidin-5-yl}methyl)amino]-2-oxoethyl L-valinate hydrochloride], in data set [1] (buffer pH 4, 37° C.), the “% test substance after 4 h” value came to 100% and the “% Test substance after 24 h” value turned out to be 99%. For the same molecule, in data set [1] (buffer pH 7.4, 37° C.), the “% test substance after 4 h” value is listed as 88% and the “% Test substance after 24 h” value is given as 48%. The molecule also gave a solubility at 24 h in data set [2] of 340 µg/mL.

`O=C(OCC(=O)N(C[C@H]1CN(c2ccc(N3CCOCC3=O)cc2)C(=O)O1)C(=O)c1ccc(Cl)s1)[C@@H]1CCCN1` [Example 4, 2-[[(5-Chloro-2-thienyl)carbonyl] ({(5S)-2-oxo-3-[4-(3-oxomorpholin-4-yl)phenyl]-1,3-oxazolidin-5-yl}methyl)amino]-2-oxoethyl L-prolinate hydrochloride]: in data set [1] (buffer pH 4, 37° C.), the “% test substance after 4 h” value was 100% and the “% Test substance after 24 h” value was 100%. In data set [1] (buffer pH 7.4, 37° C.), the “% test substance after 4 h” value was 31% and the “% Test substance after 24 h” value was found to be 0%. The same molecule registered a solubility at 24 h in data set [2] of 480 µg/mL.

As to `CNCC(=O)OCC(=O)N(C[C@H]1CN(c2ccc(N3CCOCC3=O)cc2)C(=O)O1)C(=O)c1ccc(Cl)s1` [Example 5, 2-[[(5-Chloro-2-thienyl)carbonyl]({(5S)-2-oxo-3-[4-(3-oxomorpholin-4-yl)phenyl]-1,3-oxazolidin-5-yl}methyl)amino]-2-oxoethyl N-methylglycinate hydrochloride], the “% test substance after 4 h” value in data set [1] (buffer pH 4, 37° C.) is 100%; in data set [1] (buffer pH 7.4, 37° C.), 68%. In addition, the “% Test substance after 24 h” value in data set [1] (buffer pH 4, 37° C.) worked out at 94%; in data set [1] (buffer pH 7.4, 37° C.) it was 14%. Besides, the solubility at 24 h in data set [2] worked out at 330 µg/mL.

Turning to `NCCCC[C@H](N)C(=O)OCC(=O)N(C[C@H]1CN(c2ccc(N3CCOCC3=O)cc2)C(=O)O1)C(=O)c1ccc(Cl)s1` [Example 7, 2-[[(5-Chloro-2-thienyl)carbonyl]({(5S)-2-oxo-3-[4-(3-oxomorpholin-4-yl)phenyl]-1,3-oxazolidin-5-yl}methyl)amino]-2-oxoethyl L-lysinate dihydrochloride], in data set [1] (buffer pH 4, 37° C.), the “% test substance after 4 h” value is given as 100% and the “% Test substance after 24 h” value amounted to 99%. For the same molecule, in data set [1] (buffer pH 7.4, 37° C.), the “% test substance after 4 h” value amounted to 48% and the “% Test substance after 24 h” value is listed as 3%. Besides, in data set [2], the solubility at 24 h is 340 µg/mL.

`N[C@@H](Cc1c[nH]cn1)C(=O)OCC(=O)N(C[C@H]1CN(c2ccc(N3CCOCC3=O)cc2)C(=O)O1)C(=O)c1ccc(Cl)s1` [Example 8, 2-[[(5-Chloro-2-thienyl)carbonyl]({(5S)-2-oxo-3-[4-(3-oxomorpholin-4-yl)phenyl]-1,3-oxazolidin-5-yl}methyl)amino]-2-oxoethyl L-histidinate dihydrochloride]: in data set [1] (buffer pH 4, 37° C.), the “% test substance after 4 h” value is 99% and the “% Test substance after 24 h” value is recorded as 81%. Further, in data set [1] (buffer pH 7.4, 37° C.), the “% test substance after 4 h” value worked out at 2% and the “% Test substance after 24 h” value stood at 0%.

With `CC(C)[C@H](N)C(=O)SCC(=O)N(C[C@H]1CN(c2ccc(N3CCOCC3=O)cc2)C(=O)O1)C(=O)c1ccc(Cl)s1` [Example 10, S-{2-[[(5-Chloro-2-thienyl)carbonyl]({(5S)-2-oxo-3-[4-(3-oxomorpholin-4-yl)phenyl]-1,3-oxazolidin-5-yl}methyl)amino]-2-oxoethyl}(2S)-2-amino-3-methylbutanethioate hydrobromide], the “% test substance after 4 h” value in data set [1] (buffer pH 4, 37° C.) was 100%; in data set [1] (buffer pH 7.4, 37° C., hydrobromide) it was 8%. Besides, the “% Test substance after 24 h” value in data set [1] (buffer pH 4, 37° C.) was 99%; in data set [1] (buffer pH 7.4, 37° C.), 0%. Besides, the solubility at 24 h in data set [2] came out at 680 µg/mL.

What is called Solubility is the dissolved amount per volume that the medium holds. Turning to `CC(C)[C@H](N)C(=O)SCC(=O)N(C[C@H]1CN(c2ccc(N3CCOCC3=O)cc2)C(=O)O1)C(=O)c1ccc(Cl)s1` [Example 11, S-{2-[[(5-Chloro-2-thienyl)carbonyl]({(5S)-2-oxo-3-[4-(3-oxomorpholin-4-yl)phenyl]-1,3-oxazolidin-5-yl}methyl)amino]-2-oxoethyl}(2S)-2-amino-3-methylbutanethioate hydrochloride], the “% test substance after 4 h” value in data set [1] (buffer pH 7.4, 37° C., hydrochloride) was found to be 10%. Besides, the Solubility in data set [2] (hydrochloride) amounted to 960 µg/mL.

`CNCCCC(=O)N(C[C@H]1CN(c2ccc(N3CCOCC3=O)cc2)C(=O)O1)C(=O)c1ccc(Cl)s1` [Example 12, 5-Chloro-N-[4-(methylamino)butanoyl]-N-({(5S)-2-oxo-3-[4-(3-oxomorpholin-4-yl)phenyl]-1,3-oxazolidin-5-yl}methyl)thiophene-2-carboxamide hydrobromide]: the “% test substance after 4 h” value in data set [1] (setting [3]) amounted to 100%; in data set [1] (buffer pH 7.4, 37° C.), 0%. For the same molecule, the “% Test substance after 24 h” value is 98% in data set [1] (setting [3]) and 0% in data set [1] (buffer pH 7.4, 37° C.). In data set [2], this molecule came in with a solubility at 24 h of 350 µg/mL.

For `CNCCCCC(=O)N(C[C@H]1CN(c2ccc(N3CCOCC3=O)cc2)C(=O)O1)C(=O)c1ccc(Cl)s1` [Example 14, 5-Chloro-N-[5-(methylamino)pentanoyl]-N-({(5S)-2-oxo-3-[4-(3-oxomorpholin-4-yl)phenyl]-1,3-oxazolidin-5-yl}methyl)thiophene-2-carboxamide hydrobromide], in data set [1] (setting [3]), the “% test substance after 4 h” value is 57% and the “% Test substance after 24 h” value came to 0%. For the same molecule, in data set [1] (buffer pH 7.4, 37° C.), the “% test substance after 4 h” value is recorded as 0% and the “% Test substance after 24 h” value is reported as 0%.

As to `CNCCCCCC(=O)N(C[C@H]1CN(c2ccc(N3CCOCC3=O)cc2)C(=O)O1)C(=O)c1ccc(Cl)s1` [Example 18, 5-Chloro-N-[6-(methylamino)hexanoyl]-N-({(5S)-2-oxo-3-[4-(3-oxomorpholin-4-yl)phenyl]-1,3-oxazolidin-5-yl}methyl)thiophene-2-carboxamide hydrochloride], in data set [1] (buffer pH 4, 37° C.), the “% test substance after 4 h” value is 100% and the “% Test substance after 24 h” value worked out at 99%.

In the case of `NCCCC(=O)N(C[C@H]1CN(c2ccc(N3CCOCC3=O)cc2)C(=O)O1)C(=O)c1ccc(Cl)s1` [Example 19, N-(4-Aminobutanoyl)-5-chloro-N-({(5S)-2-oxo-3-[4-(3-oxomorpholin-4-yl)phenyl]-1,3-oxazolidin-5-yl}methyl)thiophene-2-carboxamide hydrochloride], in data set [1] (buffer pH 4, 37° C.), the “% test substance after 4 h” value was 100% and the “% Test substance after 24 h” value is reported as 97%. In addition, in data set [1] (buffer pH 7.4, 37° C.), the “% test substance after 4 h” value came out at 0% and the “% Test substance after 24 h” value was 0%.

`O=C(NC[C@H]1CN(c2ccc(N3CCOCC3=O)cc2)C(=O)O1)c1ccc(Cl)s1` [compound (A), 5-Chloro-N-({(5S)-2-oxo-3-[4-(3-oxomorpholin-4-yl)phenyl]-1,3-oxazolidin-5-yl}methyl)thiophene-2-carboxamide, reference compound] displayed a solubility at 24 h in data set [2] of 8.1 µg/mL (≈ 18.6 µM).
